Test results reported in publication PMC6154661, “In Vitro Glucuronidation and Sulfation of ε-Viniferin, a Resveratrol Dimer, in Humans and Rats” (Molecules : A Journal of Synthetic Chemistry and Natural …, 2017).
Values joined by “and” are separate entries in the source; they are usually repeats but may differ in a detail not shown here. Equal entries are not always repeated. Where two headings read alike, the source gives them in different places.

What was measured:
[1] = Glucuronidation of ε-viniferin by rat liver S9 fractions (UDPGA); format: in vitro ADME; conditions: for Vmax: formation of the glucuronide from ε-viniferin, rat liver S9, mean ± SEM, n=3
Protocol: (§1) After incubation of ε-viniferin (50 µM) for 40 min at 37 °C with either human (Figure 2a, lower panel) or rat (Figure 2b, lower panel) liver S9 fractions (2 mg/mL) in the presence of different phase II cofactor(s), i.e., 3′-phosphoadenosine-5′-phosphosulfate (PAPS) and UDPGA, eight metabolites were found using UPLC-DAD-MS. These metabolites were further identified by comparison with the UPLC retention times and mass spectra of the authentic chemical standards that were obtained by chemical hemi-synthesis (Figure 1a). These eight compounds were the four glucuronoconjugates (MG1, MG2, MG3, and MG4) and the four sulfoconjugates (MS1, MS2, MS3, and MS4). These metabolites were absent in the control condition, i.e., in the presence of liver S9 fractions and in the absence of phase II cofactors (data not shown).
(§2) Samples from either chemical hemi-synthesis or metabolic reactions were carried using a 1290 Infinity UPLC (Agilent Technologies, Courtaboeuf, France). The UPLC was coupled to an Esquire 3000 Plus ion trap mass spectrometer using an ESI source (Bruker-Daltonics, Billerica, MA, USA). 2 µL were injected into an Agilent SB-C18 column (1.8 µm, 2.1 × 100 mm). Samples were eluted with solvent A (H2O 0.1% FA) and solvent B (acetonitrile 0.1% FA) by the following gradient program: 0–1.7 min, 10% B; 1.7–3.4 min, 10–20% B; 3.4–5.1 min, 20–30% B; 5.1–7.8 min, 30% B; 7.8–8.5 min, 30–35% B; 8.5–11.9 min, 35–60% B; 11.9–15.3 min, 60–100% B; 15.3–17 min, 100% B; 17–17.3 min, 100–10% B. The flow rate was set to 0.4 mL/min and the UV detector was set at the wavelength 320 nm. Total ion chromatograms were obtained using negative mode with a range of m/z 130–1400. The parameters were: capillary voltage, +4 kV; nebulizer pressure, 40 psi; dry gas, 10 L/min; dry temperature, 365 °C. Data analysis was performed with Bruker Data Analysis 3.2 (Bruker-Daltonics, Billerica, MA, USA). Metabolite concentrations were expressed as an equivalent of the ε-viniferin standard curve.
(§3) The incubation conditions were optimized by preliminary experiments to ensure the formation rates of metabolites were linear over the incubation time and at the concentration of protein added. Sulfation was investigated by incubating human or rat liver S9 fractions (2 mg/mL) with ε-viniferin at different concentrations (5 to 300 µM) in Tris-HCl buffer (50 mM, pH 7.4), in the presence of PAPS (1 mM), DTT (10 mM), MgCl2 (5 mM) in a final volume of 100 µL. After 40 min at 37 °C, the reaction was stopped with 100 µL of methanol to precipitate the protein. Glucuronidation was investigated by incubating human or rat liver S9 fractions (2 mg/mL) with ε-viniferin at different concentrations (5 to 300 µM) in Tris-HCl buffer (50 mM, pH 7.4), in the presence of UDPGA (1 mM), alamethicin (25 µg/mL), and MgCl2 (5 mM) in a final volume of 100 µL. After 40 min at 37 °C, the reaction was stopped with 100 µL of methanol to precipitate the protein. Samples from sulfation and glucuronidation were then centrifuged for 30 min (14,000× g, 4 °C), and the resultant supernatants were analyzed using UPLC-DAD-MS as described above. The kinetic model that was used to analyze the results was substrate inhibition. Kinetic parameters, i.e., Vmax and Km were obtained using GraphPad Prism software (La Jolla, CA, USA). Results are expressed as mean ± sem of three independent experiments.
(§4) V = (Vmax × [S])/(Km + [S] + [S]^2/Ki), […]

[2] = Formation of glucurono- and sulfoconjugates of ε-viniferin (50 µM, 40 min) with human liver S9 fractions; format: in vitro ADME; conditions: human liver S9, ε-viniferin 50 µM
Protocol: as §1, §2, §3

[3] = Formation of glucurono- and sulfoconjugates of ε-viniferin (50 µM, 40 min) with rat liver S9 fractions; format: in vitro ADME; conditions: rat liver S9, ε-viniferin 50 µM
Protocol: as §1, §2, §3

[4] = Glucuronidation of ε-viniferin by human liver S9 fractions (UDPGA); format: in vitro ADME; conditions: for Vmax: formation of the glucuronide from ε-viniferin, human liver S9, mean ± SEM, n=3; for relative abundance among the glucuronides (UPLC-DAD profile): human liver S9 2 mg/mL, ε-viniferin 50 µM, UDPGA, 40 min, 37 °C
Protocol: as §1, §2, §3
(§5) V = (Vmax × [S])/(Km + [S] + [S]^2/Ki),
(§6) Vmax: maximal velocity; Km: substrate affinity constant; [S]: substrate concentration; Ki: substrate inhibition constant.

[5] = Sulfation of ε-viniferin by human liver S9 fractions (PAPS); format: in vitro ADME; conditions: for Vmax: formation of the sulfate from ε-viniferin, human liver S9, mean ± SEM, n=3; for relative abundance among the sulfoconjugates (UPLC-DAD profile): human liver S9 2 mg/mL, ε-viniferin 50 µM, PAPS, 40 min, 37 °C
Protocol: as §1, §2, §3, §4

[6] = Sulfation of ε-viniferin by rat liver S9 fractions (PAPS); format: in vitro ADME; conditions: for Vmax: formation of the sulfate from ε-viniferin, rat liver S9, mean ± SEM, n=3; for relative abundance among the sulfoconjugates (UPLC-DAD profile): rat liver S9 2 mg/mL, ε-viniferin 50 µM, PAPS, 40 min, 37 °C
Protocol: as §1, §2, §3, §5, §6

[7] = rat, in vivo; cited from earlier work
[8] = design: method as in PMID 27902942; conditions: mice, oral administration; cited from earlier work

Row | Structure (SMILES) | Vmax [1] | percentage of each metabolite relative to the total amount of ε-viniferin metabolites formed by glucuronidation [2] | percentage of each metabolite relative to the total amount of ε-viniferin metabolites formed by glucuronidation [3] | Vmax [4] | relative abundance among the sulfoconjugates (UPLC-DAD profile) [5] | percentage of each metabolite relative to the total amount of ε-viniferin metabolites formed by sulfation [2] | percentage of each metabolite relative to the total amount of ε-viniferin metabolites formed by sulfation [3] | Vmax [6] | relative abundance among the sulfoconjugates (UPLC-DAD profile) [6] | other results
1 | O=C(O)C1OC(Oc2cc(/C=C/c3ccc(O)cc3)c3c(c2)OC(c2ccc(O)cc2)C3c2cc(O)cc(O)c2)C(O)C(O)C1O (stereo not shown) [MG1] | 548.90 ± 86.17 pmol/min/mg protein | MG1: 54.6 ± 2.4% | MG1: 91.1 ± 2.4% | 11.27 ± 1.30 pmol/min/mg protein | – | – | – | – | – | relative abundance among the glucuronides (UPLC-DAD profile) ([1]; rat liver S9 2 mg/mL, ε-viniferin 50 µM, UDPGA, 40 min, 37 °C): major metabolite; relative abundance among the glucuronides (UPLC-DAD profile) [4]: major metabolites
2 | O=C(O)C1OC(Oc2ccc(/C=C/c3cc(O)cc4c3C(c3cc(O)cc(O)c3)C(c3ccc(O)cc3)O4)cc2)C(O)C(O)C1O (stereo not shown) [MG2] | 12.49 ± 1.13 pmol/min/mg protein | MG2: 5.0 ± 1.2% | MG2: 1.1 ± 0.2% | 2.54 ± 0.16 pmol/min/mg protein | – | – | – | – | – | –
3 | O=C(O)C1OC(Oc2ccc(C3Oc4cc(O)cc(/C=C/c5ccc(O)cc5)c4C3c3cc(O)cc(O)c3)cc2)C(O)C(O)C1O (stereo not shown) [MG3] | 3.06 ± 0.14 pmol/min/mg protein | MG3: 8.9 ± 0.5% | MG3: 0.7 ± 0.0% | 0.78 ± 0.06 pmol/min/mg protein | – | – | – | – | – | –
4 | O=C(O)C1OC(Oc2cc(O)cc(C3c4c(/C=C/c5ccc(O)cc5)cc(O)cc4OC3c3ccc(O)cc3)c2)C(O)C(O)C1O (stereo not shown) [MG4] | 43.99 ± 5.49 pmol/min/mg protein | MG4: 31.5 ± 0.9% | MG4: 7.1 ± 0.1% | 4.91 ± 0.78 pmol/min/mg protein | – | – | – | – | – | relative abundance among the glucuronides (UPLC-DAD profile) [4]: major metabolites
5 | O=S(=O)(O)Oc1cc(/C=C/c2ccc(O)cc2)c2c(c1)OC(c1ccc(O)cc1)C2c1cc(O)cc(O)c1 (stereo not shown) [MS1] | – | – | – | – | major metabolite | MS1: 75.2 ± 3.8% | MS1: 38.0 ± 1.4% | 25.16 ± 2.29 pmol/min/mg protein | almost equal amounts | Vmax [5]: 361.60 ± 13.09 pmol/min/mg protein
6 | O=S(=O)(O)Oc1ccc(/C=C/c2cc(O)cc3c2C(c2cc(O)cc(O)c2)C(c2ccc(O)cc2)O3)cc1 (stereo not shown) [MS2] | – | – | – | – | – | MS2: 24.8 ± 1.2% | MS2: 23.5 ± 3.1% | 8.46 ± 0.89 pmol/min/mg protein | almost equal amounts | Vmax [5]: 30.46 ± 0.96 pmol/min/mg protein
7 | O=S(=O)(O)Oc1ccc(C2Oc3cc(O)cc(/C=C/c4ccc(O)cc4)c3C2c2cc(O)cc(O)c2)cc1 (stereo not shown) [MS3] | – | – | – | – | trace amount | MS3: 0% | MS3: 22.0 ± 1.9% | 13.47 ± 1.10 pmol/min/mg protein | almost equal amounts | –
8 | O=S(=O)(O)Oc1cc(O)cc(C2c3c(/C=C/c4ccc(O)cc4)cc(O)cc3OC2c2ccc(O)cc2)c1 (stereo not shown) [MS4] | – | – | – | – | trace amount | MS4: 0% | MS4: 16.4 ± 1.3% | 36.79 ± 3.94 pmol/min/mg protein | almost equal amounts | –
9 | Oc1ccc([C@H]2Oc3ccc(/C=C/c4cc(O)cc(O)c4)cc3[C@@H]2c2cc(O)cc(O)c2)cc1 [δ-viniferin] | – | – | – | – | – | – | – | – | – | oral bioavailability [7]: 2.3%
10 | Oc1ccc(/C=C/c2cc(O)cc3c2[C@@H](c2cc(O)cc(O)c2)[C@H](c2ccc(O)cc2)O3)cc1 [ε-viniferin, ε-Viniferin] | – | – | – | – | – | – | – | – | – | oral bioavailability [8]: 0.77%; Glucuronidation (%) [2]: 29.1% and 29.1 ± 1.2%; Sulfatation (%) [2]: 43.6% and 43.6 ± 1.8%; Sulfatation (%) [3]: 4.3% and 4.3 ± 0.3%; ε-viniferin conversion (%) [3]: 78.1 ± 0.9%
